Where “and” joins values, the source holds several entries; their conditions need not be identical. Equal entries are not always repeated.
Tests used:
[1] = PAMPA parallel artificial membrane permeability assay; conditions: for recovery at 16 h, 10 µM / Papp at 16 h, 10 μM: PAMPA
Procedure: Passive diffusion was estimated using the PAMPA method. […] The donor plate was a MultiScreen-IP Plate with 0.45 μm hydrophobe Immobilon-P Membrane (Millipore, #MAIPNTR10) and the acceptor plate was a MultiScreen 96-well Transport Receiver Plate (Millipore, #MATRNPS50). […] Acceptor pH was 7.4. All samples were analyzed against an external, matrix-matched, standard curve by LC-MS/MS with a Waters (Elstree, Herts. UK) Acquity H-class LC system coupled to a Waters TQ-S mass spectrometer. Permeability values (cm/s) were calculated using the following equation: [drawing 2] and VD = volume of donor; VA = volume of acceptor; area = surface area of the membrane · porosity.

[2] = Microsomal incubations, mouse liver microsomes; format: in vitro ADME; conditions: 1 μM
Procedure: Metabolic stability assays were performed using a Microlab Star liquid handling workstation (Hamilton Robotics, Bonaduz, Switzerland). Test compounds (1 μM, 1% DMSO) were preincubated at 37 °C for 10 min in 0.5 mg/mL female CD1 mouse and mixed gender human liver microsomes in 10 mM phosphate buffered saline (PBS; Sigma-Aldrich Company Ltd. (Dorset, UK)). Microsomes were purchased either from Sekisui XenoTech, LLC (Kansas City, USA) or BioreclamationIVT (Frankfurt Am Main, Germany). Reactions were initiated by the addition of NADPH (final concentration 1 mM). At 0, 15, and 30 min, aliquots were removed from each incubation and quenched in 3 volumes of ice-cold methanol containing olomoucine (Sigma-Aldrich, Dorset, UK) as an internal standard. […] The percentage metabolized was calculated by comparing peak area ratio (peak area test compound/peak area of internal standard) at t = 15 and 30 min versus t = 0 min.

[3] = target: HHAT; set-up: method as in PMID 34890564, PMID 33768725; conditions: read-out: Ki, competitive inhibitor of Pal-CoA; cited from earlier work
[4] = test system: Caco-2 human colon carcinoma cell line; assay: Caco-2 permeability assay; format: in vitro ADME
Procedure: Apparent permeability (Papp) was determined in the Caco-2 human colon carcinoma cell line. Cells were maintained in DMEM containing 10% fetal bovine serum, penicillin and streptomycin in a humidified atmosphere with 5% CO2 for 10 days. Cells were plated onto a cell culture assembly plate (Millipore, UK) and monolayer confluency was checked using a TEER electrode prior to the assay. Medium was washed off and replaced in the appropriate apical and basal wells with HBSS buffer (pH 7.4) containing compounds (10 μM, 1% DMSO). The Caco-2 plate was incubated for 2 h at 37 °C, and Lucifer yellow was used to confirm membrane integrity postassay. […] Papp was determined as follows: [drawing 1] where Vr = volume of receptical; A = surface area of monolayer; C0 = Initial compound concentration in donor.

[5] = pH 5, PAMPA Papp pH 5, donor pH 5, 10 µM
[6] = pH 5, PAMPA Permeability Class pH 5, donor pH 5, 10 µM
[7] = pH 6.5, PAMPA Papp pH 6.5, donor pH 6.5, 10 µM
[8] = pH 6.5, PAMPA Permeability Class pH 6.5, donor pH 6.5, 10 µM
[9] = pH 7.4, PAMPA Papp pH 7.4, donor pH 7.4, 10 µM
[10] = pH 7.4, PAMPA Permeability Class pH 7.4, donor pH 7.4, 10 µM

Structure (SMILES)	recovery at 16 h, 10 µM ([1]; pH 5) [%]	Papp at 16 h, 10 μM [1, 5] [×10⁻⁶ cm/s]	Papp at 16 h, 10 μM [1, 6] [×10⁻⁶ cm/s]	recovery at 16 h, 10 µM ([1]; pH 6.5) [%]	Papp at 16 h, 10 μM [1, 7] [×10⁻⁶ cm/s]	Papp at 16 h, 10 μM [1, 8] [×10⁻⁶ cm/s]	recovery at 16 h, 10 µM ([1]; pH 7.4) [%]	Papp at 16 h, 10 μM [1, 9] [×10⁻⁶ cm/s]	Papp at 16 h, 10 μM [1, 10] [×10⁻⁶ cm/s]	MLM % metabolized after 15 min [2]	MLM % metabolized after 30 min [2] [%]	Ki [3] [nM]	PAMPA permeability ([1]; over the full pH range tested)	PAMPA passive permeability ([1]; pH 7.4)	Caco-2 efflux [4]	Caco-2 permeability [4]
CCC(C)CNCC(=O)N1CCc2sccc2C1c1cccc(C)c1 (stereo not shown) [Compound 17]	< 31	< 0.7	< 5	< 10	< 9.7	5 to 20	< 10	< 4.5	< 5	99.5% and > 90%	100.0	–	–	–	–	–
Cc1cccc([C@H]2c3ccsc3CCN2C(=O)CNCC(C)C)n1 [Compound 30]	–	–	–	–	–	–	–	–	–	> 90% and 95.5%	99.7	38	–	–	–	–
CC(=O)N1CCc2sccc2C1c1ccccc1 (stereo not shown) [Compound 5]	95	> 200	> 20	98	117	> 20	91	> 200	> 20	99.5% and > 90%	99.4	–	high permeability	high passive permeability	–	–
C=CCNCC(=O)N1CCc2sccc2C1COc1ccc(Cl)cc1 (stereo not shown) [Compound 2]	< 31	< 1.5	< 5	< 10	10.9	5 to 20	< 10	20.4	> 20	90.8% and > 90%	98.4	–	–	high passive permeability	no detectable efflux	moderate-high permeability
CCC(C)CNCC(=O)N1CCc2sccc2C1c1cccc(C)n1 (stereo not shown) [Compound 22]	< 65	< 0.4	< 5	< 23	13	5 to 20	< 15	42.4	> 20	98.1% and > 90%	99.7	–	–	high passive permeability	no detectable efflux	moderate-high permeability
